Earlier results, collected in US20190055521A1, “Methods Of Propagating Rhinovirus C In Previously Unsusceptible Cell Lines” (Wisconsin Alumni Research Foundation, priority 2014, published 2019).
Read-outs that look alike come from different tables or passages of the source.

Key:
RV-A [1] = conditions: unmodified HeLa cells; previously documented
RV-B [2] = conditions: unmodified HeLa cells; previously documented
RV-B [3] = conditions: unmodified HeLa cells; drug added to cells before infection; previously documented
RV-A [4] = conditions: unmodified HeLa cells; drug added to cells before infection; previously documented

| SMILES | inhibition of RV-A (RV-A [1]) | inhibition of RV-B (RV-B [2]) | inhibition of RV-B (RV-B [3]) | inhibition of RV-A (RV-A [4]) |
| --- | --- | --- | --- | --- |
| Cc1cc(CCCOc2c(C)cc(-c3noc(C(F)(F)F)n3)cc2C)on1 [Pleconaril] | inhibition | inhibition |  |  |
| CCOC(=O)/C=C/[C@H](C[C@@H]1CCNC1=O)NC(=O)[C@@H](CC(=O)[C@@H](NC(=O)c1cc(C)on1)C(C)C)Cc1ccc(F)cc1 [Rupintrivir] |  |  | inhibition | inhibition |
